Test results from US7057036B2, “Pyrrolothiazine and pyrrolothiazepine compounds having serotonin-2 receptor antagonistic and alpha-1-blocking action” (Daiichi Suntory Pharma Co., Ltd., priority 1997, dated 2006).

How the values were obtained:
[1] = tested on: serotonin-2 receptors; test: Anti-serotonin (5-HT) action: 5-HT-induced contraction of isolated superior mesenteric artery; details: contraction by 10^−5 M 5-HT taken as 100%, guinea pig superior mesenteric artery
Description: (1) Anti-Serotonin (5-HT) Action
A preparation cut in a helical form was suspended under resting-tension of 0.3 g in a Magnus cylinder filled with the Tyrode solution which had been aerated with a gas mixture of 95% O2 and 5% CO2 and maintained at 37° C. Using an isometric transducer (“UL-10”, manufactured by SHINKOH K. K.) and a pressure preamplifier (“DSA-605A”, manufactured by SHINKOH K. K.), variations in tension were measured. The isometric tensions were recorded on a pen-writing recorder (“VP-6537A”, manufactured by NATIONAL K. K.). Taking the contraction induced by 10^−5 M serotonin (5-HT) as 100%, the percent contractions by 10^−5 M 5-HT in the presence of each test drug at 10^−7 M and 10^−6 M were determined as anti-5-HT action.

[2] = tested on: α1 receptors; test: Anti-α1 action: norepinephrine-induced tonic contraction of isolated thoracic aorta; details: tonic contraction by 10^−5 M norepinephrine taken as 100%, guinea pig thoracic aorta
Description: The thoracic aorta of each Hartley male guinea pig (body weight: 300–500 g) was excised. A preparation cut in a helical form was suspended under 1 g load in a Magnus cylinder filled with the Tyrode solution which had been aerated with a gas mixture of 95% O2 and 5% CO2 and maintained at 37° C. Using an isometric transducer (“TB-612J”, manufactured by Nihon Kohden Corporation) and a pressure preamplifier (“AP-620G”, manufactured by Nihon Kohden Corporation), variations in tension were measured. The isometric tensions were recorded on a thermal pen-writing recorder (“WT-647G”, manufactured by Nihon Kohden Corporation). Taking the tonic contraction induced by 10^−5 M norepinephrine (NE) as 100%, the percent contractions upon addition of each test drug at 10^−8 M and 10^−7 M were determined and recorded as α1 action.

SMILES	Anti 5-HT action (% of Control) ([1]; test drug 10^−6 M)	Anti 5-HT action (% of Control) ([1]; test drug 10^−7 M)	Anti α1 action (% of Control) ([2]; test drug 10^−7 M)	Anti α1 action (% of Control) ([2]; test drug 10^−8 M)
Cn1ccc2c1C(=O)CCN(CCCN1CCC(C(=O)c3ccc(F)cc3)CC1)S2(=O)=O [Compound 22, 2-[3-[4-(4-fluorobenzoyl)piperidino]propyl]-6-methyl-3,4,5,6-tetrahydro-2H-pyrrolo[2,3-f][1,2]thiazepin-5-one 1,1-dioxide]	21.3 % of Control	75.3 % of Control	64.9 % of Control	91.2 % of Control
Cn1ccc2c1C(O)CCN(CCCN1CCN(c3ccc(F)cc3)CC1)S2(=O)=O (centres unmarked) [Compound 30, 2-[3-[4-(4-fluorophenyl)piperazin-1-yl]propyl]-5-hydroxy-6-methyl-3,4,5,6-tetrahydro-2H-pyrrolo[2,3-f][1,2]thiazepine 1,1-dioxide]	37.2 % of Control	83.5 % of Control	88.0 % of Control	102.3 % of Control
Cn1ccc2c1C(=NO)CN(CCCN1CCC(C(=O)c3ccc(F)cc3)CC1)S2(=O)=O [Compound 26, 2-[3-[4-(4-fluorobenzoyl)piperidino]propyl]-4-hydroxyimino-5-methyl-2,3,4,5-tetrahydropyrrolo[2,3-e][1,2]thiazine 1,1-dioxide]	18.2 % of Control	54.6 % of Control	73.1 % of Control	99.6 % of Control
Cn1ccc2c1C(=NO)CCN(CCCN1CCN(c3ccc(F)cc3)CC1)S2(=O)=O [Compound 27, 2-[3-[4-(4-fluorophenyl)piperazin-1-yl]propyl]-5-hydroxyimino-6-methyl-3,4,5,6-tetrahydro-2H-pyrrolo[2,3-f][1,2]thiazepine 1,1-dioxide]	22.7 % of Control	76.2 % of Control	53.0 % of Control	91.2 % of Control
Cn1ccc2c1C(=NO)CN(CCCN1CCN(c3ccc(F)cc3)CC1)S2(=O)=O [Compound 25, 2-[3-[4-(4-fluorophenyl)piperazin-1-yl]propyl]-4-hydroxyimino-5-methyl-2,3,4,5-tetrahydropyrrolo[2,3-e][1,2]thiazine 1,1-dioxide]	19.6 % of Control	69.8 % of Control	24.1 % of Control	65.3 % of Control
